One data set concerns CD13. As to conditions: cNGR tripeptide vs. linear entity; cited from earlier work. An excerpt:
In this study, we designed and developed a CD13 molecular imaging probe that allowed sensitive visualisation using micro-SPECT imaging. […] Thereto, the cNGR tripeptide was conjugated with diethylene triamine pentaacetic acid (DTPA), radiolabeled with ^111In and evaluated in a mouse model of myocardial infarction in combination with ^99mTc-sestamibi in dual-isotope micro-SPECT imaging. In order to determine binding spec ...

A short description of data set [1]: ^99mTc-sestamibi perfusion uptake (SUV) per AHA 17 segment, in vivo dual-isotope micro-SPECT. Also noted: species or system Swiss mice. As for the experimental part:
MI was induced in 10- to 12-week old male Swiss mice by ligation of the left anterior descending coronary artery (LAD) (n = 7), as previously described. The angiogenesis imaging protocol was performed 7 days after the LAD ligation. A group of non-operated male Swiss mice (n = 5) was used as control. A variable number of animals were available for analysis per experiment. For SPECT scans, seven MI mice and five control mice were used while for biodistribution purposes ≥5 MI mice and ≥4 control mice were used. Furthermore, a group of six 10- to 12-week old male Swiss mice were bilaterally, subcutaneously implanted in the flanks with Matrigel (Table 1). […] All animals were held under the guidelines of the animal care facility (Maastricht University). All animal experiments were approved by the Committee for Animal Welfare of Maastricht University.
Mice were anesthetised with isoflurane (induction 2.5%; maintenance; 1.5%), a catheter was placed in the tail vein and the animals were positioned in the micro-SPECT camera (MiLabs, Utrecht, The Netherlands).
U-SPECT-II reconstruction software version 2.38 (MiLabs, Utrecht, The Netherlands) was used to reconstruct images. ^99mTc and ^111In images were reconstructed by selecting the photopeak (PP) and background (BG) windows as indicated in Figure 1.
To allow quantification of radiotracer uptake in vivo, conversion factors (CFs) were determined for the 0.6-mm collimator system in a representative phantom (20 ml) for ^99mTc and/or ^111In. During the SPECT reconstruction, the total amount of counts was distributed over the different voxels, resulting in a counts/voxel expression for the average concentration of counts. Taking into account the voxel volume (Vv), the CFs are calculated using equation (a):a ConversionfactorMBq=ActivityconcentrationMBq/ml/SPECTcountspervoxel/Vvml
The PMOD 2.95 cardiac tool PCARD (PMOD Technologies, Zürich, Switzerland) was used to segment the heart in the 17-segment model according to the American Heart Association (AHA) guidelines. For both the ^99mTc-sestamibi and ^111In-DTPA-cNGR images, the uptake was measured for each segment and expressed as mean standardised uptake value (SUVmean) using equation (b).b SUV=SPECTcountspervoxel×CF/VvMBq/ml×Bodyweightg/InjecteddoseMBq
For body weight, we assumed that 1 g of body weight equalled 1 ml.

Here are results for two compounds from PMC4384708, “Molecular imaging of angiogenesis after myocardial infarction by ^111In-DTPA-cNGR and ^99mTc-sestamibi dual-isotope myocardial SPECT” (EJNMMI Research, 2015).

In the case of “oxidised NAc-Cys-Asn-Gly-Arg-Cys-Gly-Gly-Lys-NH2 (disulfide) [cNGR, cyclic(NAc-Cys-Asn-Gly-Arg-Cys-Gly-Gly-Lys), disulfide-cyclised CD13-homing peptide]”, the “targeting efficacy relative to the linear entity” value with CD13 is “tenfold higher”.
For the compound `[C-]#[N+]CC(C)(C)OC.[C-]#[N+]CC(C)(C)OC.[C-]#[N+]CC(C)(C)OC.[C-]#[N+]CC(C)(C)OC.[C-]#[N+]CC(C)(C)OC.[C-]#[N+]CC(C)(C)OC.[Tc]` [^99mTc-sestamibi], the SUV in data set [1] (segment 1. Basal anterior, MI mice n = 7, 7 days after LAD ligation, mean ± S.E.M.) worked out at 1.94 ± 0.36; in data set [1] (segment 1. Basal anterior, healthy control mice n = 5, mean ± S.E.M.), 1.87 ± 0.34; in data set [1] (segment 2. Basal anteroseptal, MI mice n = 7, 7 days after LAD ligation, mean ± S.E.M.), 1.72 ± 0.33; in data set [1] (segment 2. Basal anteroseptal, healthy control mice n = 5, mean ± S.E.M.), 1.63 ± 0.28; in data set [1] (segment 3. Basal inferoseptal, MI mice n = 7, 7 days after LAD ligation, mean ± S.E.M.), 1.38 ± 0.28; in data set [1] (segment 3. Basal inferoseptal, healthy control mice n = 5, mean ± S.E.M.), 1.54 ± 0.29. For the same compound, the SUV in data set [1] (segment 4. Basal inferior, MI mice n = 7, 7 days after LAD ligation, mean ± S.E.M.) turned out to be 1.64 ± 0.24; in data set [1] (segment 4. Basal inferior, healthy control mice n = 5, mean ± S.E.M.), 1.77 ± 0.28; in data set [1] (segment 5. Basal inferolateral, MI mice n = 7, 7 days after LAD ligation, mean ± S.E.M.), 1.78 ± 0.31; in data set [1] (segment 5. Basal inferolateral, healthy control mice n = 5, mean ± S.E.M.) it was 1.68 ± 0.30; in data set [1] (segment 6. Basal anterolateral, MI mice n = 7, 7 days after LAD ligation, mean ± S.E.M.) it was 2.11 ± 0.39; in data set [1] (segment 6. Basal anterolateral, healthy control mice n = 5, mean ± S.E.M.), 1.95 ± 0.33. Besides, the SUV is given as 1.18 ± 0.26 in data set [1] (segment 7. Mid anterior, MI mice n = 7, 7 days after LAD ligation, mean ± S.E.M.); 1.80 ± 0.30 in data set [1] (segment 7. Mid anterior, healthy control mice n = 5, mean ± S.E.M.); 1.73 ± 0.27 in data set [1] (segment 8. Mid anteroseptal, MI mice n = 7, 7 days after LAD ligation, mean ± S.E.M.); 1.67 ± 0.28 in data set [1] (segment 8. Mid anteroseptal, healthy control mice n = 5, mean ± S.E.M.); 1.82 ± 0.30 in data set [1] (segment 9. Mid inferoseptal, MI mice n = 7, 7 days after LAD ligation, mean ± S.E.M.); 1.80 ± 0.34 in data set [1] (segment 9. Mid inferoseptal, healthy control mice n = 5, mean ± S.E.M.). Besides, the SUV is 1.85 ± 0.31 in data set [1] (segment 10. Mid inferior, MI mice n = 7, 7 days after LAD ligation, mean ± S.E.M.); 1.72 ± 0.28 in data set [1] (segment 10. Mid inferior, healthy control mice n = 5, mean ± S.E.M.); 1.60 ± 0.32 in data set [1] (segment 11. Mid inferolateral, MI mice n = 7, 7 days after LAD ligation, mean ± S.E.M.); 1.71 ± 0.25 in data set [1] (segment 11. Mid inferolateral, healthy control mice n = 5, mean ± S.E.M.); 1.15 ± 0.37 in data set [1] (segment 12. Mid anterolateral, MI mice n = 7, 7 days after LAD ligation, mean ± S.E.M.); 2.03 ± 0.32 in data set [1] (segment 12. Mid anterolateral, healthy control mice n = 5, mean ± S.E.M.). Also, the SUV in data set [1] (segment 13. Apical anterior, MI mice n = 7, 7 days after LAD ligation, mean ± S.E.M.) was 0.49 ± 0.10; in data set [1] (segment 13. Apical anterior, healthy control mice n = 5, mean ± S.E.M.), 1.64 ± 0.30; in data set [1] (segment 14. Apical septal, MI mice n = 7, 7 days after LAD ligation, mean ± S.E.M.) it was 1.55 ± 0.25; in data set [1] (segment 14. Apical septal, healthy control mice n = 5, mean ± S.E.M.), 1.82 ± 0.34; in data set [1] (segment 15. Apical inferior, MI mice n = 7, 7 days after LAD ligation, mean ± S.E.M.), 1.36 ± 0.35; in data set [1] (segment 15. Apical inferior, healthy control mice n = 5, mean ± S.E.M.), 1.67 ± 0.28. Further, the SUV in data set [1] (segment 16. Apical lateral, MI mice n = 7, 7 days after LAD ligation, mean ± S.E.M.) amounted to 0.64 ± 0.24; in data set [1] (segment 16. Apical lateral, healthy control mice n = 5, mean ± S.E.M.), 1.60 ± 0.30; in data set [1] (segment 17. Apex, MI mice n = 7, 7 days after LAD ligation, mean ± S.E.M.) it was 0.39 ± 0.17; in data set [1] (segment 17. Apex, healthy control mice n = 5, mean ± S.E.M.) it was 1.47 ± 0.34.
